Measured values taken from paper PMC4318710 (Bioorganic & medicinal chemistry letters, 2015).

Key:
[1] = stability on prolonged storage in DMSO; type: physicochemical; conditions: 10 mM solution in DMSO, room temperature, 30 days, LC/MS/MS
[2] = tested on: C57BL/6 mice; test: in vivo serum iron levels in mice after intraperitoneal peptide injection; conditions: 50-100 nmoles/mouse

| SMILES | stability in DMSO [1] | serum iron at 6 and 24 h time points [2] |
| --- | --- | --- |
| CCCCCCCCCCCCCCCCNC(=O)CN(CC(N)=O)C(=O)CCCCCNC(=O)C[C@H](Cc1ccccc1)NC(=O)[C@H](CCCNC(=N)N)NC(=O)[C@H](CSC(=CP(=O)(OCC)OCC)P(=O)(OCC)OCC)NC(=O)[C@H](CCCNC(=N)N)NC(=O)C[C@@H]1CCCN1C(=O)[C@@H](NC(=O)[C@H](Cc1c[nH]cn1)NC(=O)[C@@H](NC(=O)CNCC(=O)O)[C@@H](C)O)C(c1ccccc1)c1ccccc1 [PR73SH] | 99.5±0.5% | decreased serum iron |
| CCCCCCCCCCCCCCCCNC(=O)CN(CC(N)=O)C(=O)CCCCCNC(=O)C[C@H](Cc1ccccc1)NC(=O)[C@H](CCCNC(=N)N)NC(=O)[C@H](CS)NC(=O)[C@H](CCCNC(=N)N)NC(=O)C[C@@H]1CCCN1C(=O)[C@@H](NC(=O)[C@H](Cc1c[nH]cn1)NC(=O)[C@@H](NC(=O)CNCC(=O)O)[C@@H](C)O)C(c1ccccc1)c1ccccc1 [PR73] |  | decreased serum iron |
